For two molecules, IC50 results are on record in ChEMBL document CHEMBL1142622, “Inhibition of phospholipase cgamma1 and cancer cell proliferation by triterpene esters from Uncaria rhynchophylla” (J Nat Prod, 2000).

In one assay the test system is HT1197. Description: Antiproliferative activity against PLCgamma1 expressing human HT1197 cells. Format: functional, cell-based.
Another assay concerns HCT-15. Description: Antiproliferative activity against PLCgamma1 expressing human HCT15 cells. The class given is functional, cell-based.
Assay [1] has as its target T1, 1-phosphatidylinositol 4,5-bisphosphate phosphodiesterase gamma-1 (Homo sapiens, UniProt P19174).
T1 sequence (P19174 whole entry): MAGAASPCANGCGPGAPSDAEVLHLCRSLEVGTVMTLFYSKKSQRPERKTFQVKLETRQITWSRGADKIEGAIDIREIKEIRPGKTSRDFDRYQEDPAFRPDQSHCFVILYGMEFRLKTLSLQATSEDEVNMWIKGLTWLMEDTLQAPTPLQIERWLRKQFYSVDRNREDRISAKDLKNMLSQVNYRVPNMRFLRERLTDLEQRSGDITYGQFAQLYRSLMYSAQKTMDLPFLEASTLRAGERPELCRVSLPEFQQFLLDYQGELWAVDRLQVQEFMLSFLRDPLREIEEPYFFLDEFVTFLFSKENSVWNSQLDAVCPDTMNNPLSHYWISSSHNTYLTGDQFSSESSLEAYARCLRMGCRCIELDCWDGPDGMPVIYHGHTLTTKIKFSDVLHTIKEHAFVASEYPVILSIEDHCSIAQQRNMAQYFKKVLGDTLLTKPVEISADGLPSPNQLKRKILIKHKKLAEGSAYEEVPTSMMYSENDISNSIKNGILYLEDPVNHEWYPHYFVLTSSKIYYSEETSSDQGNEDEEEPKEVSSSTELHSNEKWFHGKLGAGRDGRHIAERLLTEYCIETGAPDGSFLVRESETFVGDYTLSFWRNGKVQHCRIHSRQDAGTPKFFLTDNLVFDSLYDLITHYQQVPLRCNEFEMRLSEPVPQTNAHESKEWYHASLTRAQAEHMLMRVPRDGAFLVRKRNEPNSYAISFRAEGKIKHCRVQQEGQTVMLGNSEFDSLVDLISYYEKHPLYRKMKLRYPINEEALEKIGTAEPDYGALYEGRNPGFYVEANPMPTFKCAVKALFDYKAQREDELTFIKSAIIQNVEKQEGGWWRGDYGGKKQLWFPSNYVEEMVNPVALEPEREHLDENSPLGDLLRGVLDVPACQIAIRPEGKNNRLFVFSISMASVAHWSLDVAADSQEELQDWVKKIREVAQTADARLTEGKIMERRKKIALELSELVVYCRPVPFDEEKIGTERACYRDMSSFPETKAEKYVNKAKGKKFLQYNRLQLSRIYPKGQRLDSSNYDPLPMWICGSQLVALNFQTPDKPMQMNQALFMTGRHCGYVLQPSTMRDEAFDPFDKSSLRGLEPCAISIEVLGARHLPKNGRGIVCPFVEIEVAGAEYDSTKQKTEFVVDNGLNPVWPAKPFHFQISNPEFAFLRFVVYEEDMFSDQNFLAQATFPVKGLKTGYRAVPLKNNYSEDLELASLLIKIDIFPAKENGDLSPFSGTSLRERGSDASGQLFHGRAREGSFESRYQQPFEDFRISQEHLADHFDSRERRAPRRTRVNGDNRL
Nature of the assay: Inhibition of PLCgamma1.

The next assay relates to NIH3T3. Nature of the assay: Inhibition of PDGF-induced phosphotidyl inositol turnover in PLCgamma1 expressing mouse NIH3T3 cells. Format: functional, cell-based.

Structures are written as SMILES. In brackets after ≈: the same amount, converted by molar mass.

As for `COc1cccc2c1C(=O)c1c(O)c3c(c(O)c1C2=O)C[C@@](O)(C(=O)CO)C[C@@H]3O[C@H]1C[C@H](N)[C@H](O)[C@H](C)O1` [DOXORUBICIN], the IC50 (as a rule, the concentration needed to halve the response being measured) in the assay with HT1197 stood at 0.03 µg/mL (≈ 0.0552 µM); in the assay on HCT-15, 13.4 µg/mL (≈ 24.7 µM).

Take `O=c1cc(-c2ccc(O)c(-c3c(O)cc(O)c4c(=O)cc(-c5ccc(O)cc5)oc34)c2)oc2cc(O)cc(O)c12` [AMENTOFLAVONE]: the IC50 is 29 µM in assay [1] and 9.2 µM with NIH3T3.
